In brackets after ≈: the same amount, converted by molar mass. Where two headings read alike, the source gives them in different places.
Legend:
P. falciparum culture = settings: cited from earlier work
[1] = molecular target: P. falciparum aspartic protease plasmepsin II (Plasmodium falciparum, UniProt P46925); settings: read-out: 1050, plasmepsin II; cited from earlier work
[2] = molecular target: P. falciparum lactate dehydrogenase (Plasmodium falciparum, UniProt Q27743); settings: cited from earlier work
Sequence of P. falciparum lactate dehydrogenase (Q27743 whole entry): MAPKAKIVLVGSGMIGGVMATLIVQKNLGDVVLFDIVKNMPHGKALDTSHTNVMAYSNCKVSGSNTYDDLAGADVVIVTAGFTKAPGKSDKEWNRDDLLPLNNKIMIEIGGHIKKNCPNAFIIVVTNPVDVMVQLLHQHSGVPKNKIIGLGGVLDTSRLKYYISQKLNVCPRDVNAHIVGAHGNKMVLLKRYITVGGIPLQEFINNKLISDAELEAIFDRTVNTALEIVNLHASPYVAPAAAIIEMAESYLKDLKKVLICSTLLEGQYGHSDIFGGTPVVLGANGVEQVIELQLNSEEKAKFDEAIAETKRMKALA

gamma interferon = test: in vitro gamma interferon production; assay type: cell-based
From the text: Moreover, the increase in gamma interferon may have a far greater impact on reversing the course of HIV-1 infection. […] Therefore, further evaluation of 90I in malaria cell-lines may provide the opportunity to find new clinical uses for an established HIV antiprotease patented drug. Also, the purpose of this approach is to lower the costs and shorten the timeframe of product development.

[3] = tested on: RF laboratory strain of HIV-1; test: antiviral evaluation in CEM-SS cell line against HIV-1 RF; assay type: cell-based; settings: CEM-SS cells, HIV-1 RF strain
Procedure: The purified fraction 90I may yield a fifty percent effective concentration (EC50) of 0.020 ug/ml. At the same time, there was no discernible drug induced toxicity in this study (50% inhibitory concentration ([…]) was greater than the high-test concentration of 100 ug/ml).

Sequence of P. falciparum aspartic protease plasmepsin II (P46925 125-453): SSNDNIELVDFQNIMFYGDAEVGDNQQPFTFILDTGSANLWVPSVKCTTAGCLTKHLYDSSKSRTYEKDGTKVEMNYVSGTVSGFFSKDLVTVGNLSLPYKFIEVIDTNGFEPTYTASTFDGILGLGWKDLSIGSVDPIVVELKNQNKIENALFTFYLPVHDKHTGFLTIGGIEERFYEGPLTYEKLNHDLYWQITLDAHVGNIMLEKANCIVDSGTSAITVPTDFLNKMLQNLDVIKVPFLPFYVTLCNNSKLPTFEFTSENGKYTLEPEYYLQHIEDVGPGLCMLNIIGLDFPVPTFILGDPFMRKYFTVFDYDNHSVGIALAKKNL

Compound: CC(=O)N[C@@H](CC(C)C)C(=O)N[C@@H](CC(C)C)C(=O)N[C@H](C=O)CCCNC(=N)N [Leupeptin, N-acetyl-L-leucyl-L-leucy-L-argininal]
- effects on P. falciparum culture (P. falciparum culture; 10 μg/ml): All three of these effects were also seen

Compound: CCCC[C@@H](C=O)NC(=O)[C@H](CC(C)C)NC(=O)OCc1ccccc1 [calpeptin]
- effects on P. falciparum culture (P. falciparum culture; 1 μM): All three of these effects were also seen

Compound: Cc1cccc(C)c1OCC(=O)N[C@@H](Cc1ccccc1)[C@@H](O)C[C@H](Cc1ccccc1)NC(=O)[C@H](C(C)C)N1CCCNC1=O [lopinavir]
- IC50 [1]: 2700 nM

Compound: CCN(CC)CCCC(C)Nc1ccnc2cc(Cl)ccc12 (centres unmarked) [chloroquine]
- inhibition of lactate dehydrogenase [2]: weak inhibitor

Compound: CC(C)C[C@H](NC(=O)[C@H]1O[C@@H]1C(=O)O)C(=O)NCCCCN=C(N)N (relative stereo) [E64, trans-Epoxysuccinyl-L-leucylamido(4-guanidino)butane]
- effects on P. falciparum culture (P. falciparum culture): blocked parasite release

Compound: O=C(OCCOCCOC(=O)c1ccccc1)c1ccccc1 [90I, diethylene glycol dibenzoate]
- production of gamma interferon (gamma interferon): increased production of gamma interferon
- therapeutic index (T1=IC50/EC50) [3]: greater than 5000
- EC50 ([3]; Human immunodeficiency virus 1, read-out: fifty percent effective concentration (EC50)): 0.02 µg/mL (≈ 0.0636 µM)
